Patent US9265739B2, “Methods and use of compounds that bind to HER2/neu receptor complex” (The Trustees Of The University Of Pennsylvania, priority 2010, dated 2016)

Columns and labels:
T6-17 cells [1] = assay: MTT cell proliferation assay, T6-17 cells; format: cell-based, murine; conditions: indicated doses, three days, FIG. 3
Excerpt: (§1) The activity of S22-57 in cell proliferation assays using different cell lines was examined. T6-17 is a murine cell line engineered to express human HER2/neu. […] HBL100 is an immortalized human breast cancer cell line. XHT-1-1A are mouse NIH3T3 cells transformed by Harvey-RAS (XHT-1-1a) previously developed and used (Drebin, et al., Cell 41, 697-706 (1985)). Both HBL100 and XHT-1-1A are used as controls. To measure cell proliferation, we used the modified 3-[4,5-dimethylthiazol-2-yl]-2,5-diphenyl tetrazolium bromide (MTT) assay as previously described (Masuda, et al., Oncogene 25, 7740-7746 (2006)). Cells (2000-5000 cells/well) were seeded in 96-well plates in the presence of inhibitors with different concentration and incubated at 37° C. in a humidified 5% CO2 atmosphere. After 72 h, cells were incubated in fresh medium for another 4 hours before a total of 25 μl of MTT solution (5 mg/ml in PBS) was added to each well, and after 2 h of incubation at 37° C., 100 μl of the extraction buffer (20% w/v SDS, 50% N,N-dimethyl formamide, pH 4.7) was added. After an overnight incubation at 37° C., the optical density at 570 nm was measured using a Tecan ELISA reader. […] Proliferation of cells was measured by the MTT assay.

T6-17 cells [2] = assay: Soft agar colony growth screening, T6-17 cells; format: cell-based, murine; conditions: soft agar colonies counted on day 21, relative to DMSO control, p<0.05, FIG. 1/2
Procedure: (§2) Targeted molecules were screened in vitro for anti-tumor activity using a modified […] growth of transformed cell assay, as described in Fukazawa et al. (1995), Anal. Biochem., 10:83-90. Anchorage-independent growth capability is perhaps the best indicator of the malignant phenotype and is determined by efficiency of cells to form colonies in soft agar (Drebin, et al., Cell 41, 697-706 (1985)). All experiments were conducted in 6 cm dishes in triplicate. Agar bottom layers consisted of 3 ml 0.25% agarose/DMEM (Dulbecco's Modified Eagle Medium) supplemented with 10% FBS (Fetal Bovine Serum), 2 mM L-glutamine, and 100 u/ml Penicillin/1 μg/ml Streptomycin. About 1000-2000 cells T6-17/SK-BR-3 are layered on the top in 1 ml 0.18% agarose/DMEM, 10% FBS, 2 mM L-glutamine, and 100 μ/ml Penicillin/1 μg/ml Streptomycin. Cultures were treated every 3 days with 0.5 ml of supplemented DMEM containing measured amounts of the Her2 inhibitors, or DMSO (dimethyl sulfoxide) alone. On the day before the colonies were counted, the samples were incubated with 1 ml of Hank's Balanced Salt Solution containing 1 mg/ml p-iodonitrotetrazolium violet (INT, Sigma) to stain colonies. The next day, colonies were counted using a 7× achromatic magnifying eyepiece (Bausch and Lomb). Triplicate cultures were counted on day 21 and will be verified by at least two different persons. […]

[3] = system: HER2 (phosphorylation at Y877); assay: Inhibition of HER2 phosphorylation in HC1 cells (western blot); format: cell-based, human; conditions: serum-starved HC1 cells, inhibitor 1 hour, EGF 50 ng/ml 10 minutes, FIG. 4
Procedure: The effect of S22-57 was also examined in the cetuximab-resistant non-small cell lung cancer cell line HC1. Confluent HC1 cells were first serum starved for 24 hours before exposed to inhibitors as indicated for 1 hour. Cells were then stimulated by EGF (50 ng/ml) for 10 minutes. […] Both antibodies were purchased from Cell Signaling.

SK-BR-3 cells = assay: Soft agar colony growth screening, SK-BR-3 cells; format: cell-based; conditions: soft agar colonies counted on day 21, relative to DMSO control, p<0.05, FIG. 1/2
Procedure: as §2

HC1 cells = assay: MTT cell proliferation assay, HC1 cells; format: cell-based, human; conditions: indicated doses, three days, FIG. 3
Excerpt: as §1

## O=C(CCc1cc(C(F)(F)F)cc(C(F)(F)F)c1)NN/C=C1\C=C(Cl)C=C(Cl)C1=O [S22-57]
T6-17 cells [1]
  inhibition of proliferation of T6-17 cells: inhibited T6-17 and HC1 dose-dependently
T6-17 cells [2]
  effect on T6-17 cell proliferation (colony growth in culture): reduced cellular growth in culture relative to DMSO control
[3]
  EGF-stimulated phosphorylation of HER2 at Y877: inhibited
SK-BR-3 cells
  effect on SK-BR-3 cell proliferation (colony growth in culture): reduced cellular growth in culture relative to DMSO control
HC1 cells
  inhibition of proliferation of HC1 cells: inhibited T6-17 and HC1 dose-dependently
